Source: patent US10787473B2, “PH responsive fluorescent compound, composition for detecting mitophagy using same, and method for detecting mitophagy within cells” (DOJINDO LABORATORIES, priority 2016, dated 2020)

Experiments:
[1] = tested on: Parkin-expressed HeLa cells; experiment: Confocal laser microscopic detection of mitophagy, CCCP induction; format: cell-based; conditions: 100 nmol/L, 10 μM/L CCCP for 24 hours, 1 μM Lyso Dye
Description: Methods for inducing mitophagy include, in addition to a bulk method such as described in Example 3 above, a selective method mediated with Parkin gene and PINK1 enzyme. The latter involves Parkinson disease and the relationship with a quality control of dysfunctional mitochondria (For example, see Derek Narendra, Atsushi Tanaka, Der-Fen Suen and Richard J. Youle, J. Cell Biol., 2008, 183, 795-803.). To examine the mitochondria-selective detection of autophagy, Parkin-expressed HeLa cells were prepared and the mitophagy was induced by adding Compound 9 and carbonyl cyanide m-chlorophenyl hydrazone (CCCP), a mitochondrial uncoupler and incubating.
HeLa cells were seeded on a μ-slide 8 well (Ibidi) and incubated in a CO2 incubator at 37° C. overnight. Parkin plasmid was introduced using HilyMax (DOJINDO LABORATORIES) into the cells and the cells were incubated overnight. The cultured cells were washed with a plasma-containing medium, to which Compound 9 diluted with Hanks' HEPES buffer (100 nmol/L) was added and incubated for 30 minutes. After washing with the plasma-containing medium, the cells were cultured in a cell culture medium containing 10 μM/L of CCCP for 24 hours. After the occurrence of mitophagy was monitored by the fluorescent microscope, the cultured cells were further incubated with 1 μM Lyso Dye at 37° C. for 30 minutes.

[2] = pH-dependent excitation and fluorescence spectra in buffer solution containing 50% acetonitrile; format: physicochemical
Description: To investigate a pH-dependent fluorescent emission of Compound 9, excitation spectra (“Excitation” in FIG. 1) and fluorescence spectra (“Fluorescence” in FIG. 1) were measured at pH 4.0 and 7.4 in buffer solution containing 50% acetonitrile.

HeLa cells = experiment: Mitophagy detection test using HeLa cells (starvation induction), fluorescent microscope; format: cell-based; conditions: 100 nmol/L, 30 min, 1 μM Lyso Dye
Description: HeLa cells were seeded on a μ-slide 8 well (Ibidi) and incubated in a CO2 incubator at 37° C. overnight. Compound 9 diluted with Hanks' HEPES buffer (100 nmol/L) was added and incubated for 30 minutes. A starvation induction was carried out by washing cultured cells with Hanks' HEPES buffer twice follow by adding plasma-free Krebs' buffer containing 1 μM glucagon and 7.5 μM pepstatin A and incubating at 37° C. for appropriate period. Then, the cultured cells were observed by a fluorescent microscope. To confirm the uptake of Compound 9 in lysosomes, 1 μM Lyso Dye diluted with Hanks' HEPES buffer was added to the cultured cells and incubated at 37° C. for 30 minutes.

[3] = Fluorescent intensity at various pH in buffer solution containing 50% DMSO; format: physicochemical
Description: The fluorescent intensities of Compound 9 at various pH were measured in buffer solution containing 50% DMSO. […] Such increase takes place at more acidic side than that of naphthyl imide-type pH-responsive fluorescent compound.

[4] = tested on: Parkin-non-expressed HeLa cells; experiment: Confocal laser microscopic detection of mitophagy, CCCP induction; format: cell-based; conditions: 100 nmol/L, 10 μM/L CCCP for 24 hours
[5] = tested on: Parkin-expressed HeLa cells; experiment: Flow cytometry (FCM) analysis of mitophagy, CCCP induction; format: cell-based; conditions: 100 nmol/L, 10 μM/L CCCP for 24 hours
Description: HeLa cells were seeded on a 24 well plate and incubated in a CO2 incubator at 37° C. overnight. Parkin plasmid was introduced using HilyMax (DOJINDO LABORATORIES) into the cells and the cells were further incubated overnight. The cultured cells were washed with a plasma-containing medium, to which Compound 9 diluted with Hanks' HEPES buffer (100 nmol/L) was added and incubated for 30 minutes. After washing with the plasma-containing medium, the cells were cultured in a cell culture medium containing 10 μM/L of CCCP for 24 hours. After washing with PBS, the cells were peeled off by trypsin and EDTA. The cells were collected by centrifuge, dispersed in 0.5 mL of HBSS and analyzed by FCM (BD FACS cant II).

**Q.** With O=C(CCN1C(=O)c2ccc3c4cccc5c(N6CCN(Cc7ccc(CCl)cc7)CC6)ccc(c6ccc(c2c36)C1=O)c54)NCC[P+](c1ccccc1)(c1ccccc1)c1ccccc1.[Br-] [Compound 9] as the compound, how does the “fluorescence from compound and co-staining with lysosome dye” value [1] read?
**A.** is observed as well as the collateral stain with a lysosome dye (Lyso Dye) is observed

**Q.** And the “fluorescent intensity at pH 4.0 compared with pH 7.4” value ([2]; buffer solution containing 50% acetonitrile, pH 4.0 vs 7.4)?
**A.** higher than that at pH 7.4

**Q.** And the “shift of maximum fluorescent wavelength to short-wavelength side” value ([2]; pH 4.0 vs pH 7.4, buffer solution containing 50% acetonitrile)?
**A.** 30 nm

**Q.** What about the self-aggregation behaviour ([2]; polar solvent, leads to decrease of fluorescent intensity) of the same compound?
**A.** tends to form a self-aggregate in a polar solvent

**Q.** What about the “co-staining with Lyso Dye (uptake in lysosomes)” value (HeLa cells) of the same compound?
**A.** collateral stain took place

**Q.** What about the “change of fluorescent intensity responding to pH” value [3] of the same compound?
**A.** increases from a neutral region to an acidic region

**Q.** And the fluorescence from compound [4]?
**A.** faint

**Q.** What about the “increase of fluorescent emission on induction of mitophagy using CCCP” value [5] of the same compound?
**A.** 1.3 times
